In BindingDB's records for doi:10.1021/jm031016d (University of Athens, 2004) one finds IC50 data, which are given here for 28 compounds.

Assay [1] addresses Glycogen synthase kinase-3 alpha/beta (Sus scrofa). In words: Kinase activities were assayed in buffers containing substrate, enzyme, and inhibitor at 30 °C in the presence of 15 uM ATP/ [gamma-32P] ATP. 32P incorporation was measured with a scintillation counter. The IC50 is the inhibitor concentration, which inhibits 50% of kinase activity that catalyzes the transfer of the terminal phosphate from 32P l.

Assay [2] concerns the target T1, Cyclin-dependent kinase 5 activator 1 [99-307] (Homo sapiens, UniProt Q00535).
T1 construct: 99-307
The assay is described as follows: Kinase Inhibition Assay. As to conditions: 30 °C.

For assay [3], the target named is Cyclin-dependent kinase 1/G2/mitotic-specific cyclin-B (Marthasterias glacialis, UniProt P15206+Q9DGD3). The assay is described as follows: Kinase Inhibition Assay. As to conditions: 30 °C.
Sequence of Cyclin-dependent kinase 1/G2/mitotic-specific cyclin-B (Q9DGD3 whole entry): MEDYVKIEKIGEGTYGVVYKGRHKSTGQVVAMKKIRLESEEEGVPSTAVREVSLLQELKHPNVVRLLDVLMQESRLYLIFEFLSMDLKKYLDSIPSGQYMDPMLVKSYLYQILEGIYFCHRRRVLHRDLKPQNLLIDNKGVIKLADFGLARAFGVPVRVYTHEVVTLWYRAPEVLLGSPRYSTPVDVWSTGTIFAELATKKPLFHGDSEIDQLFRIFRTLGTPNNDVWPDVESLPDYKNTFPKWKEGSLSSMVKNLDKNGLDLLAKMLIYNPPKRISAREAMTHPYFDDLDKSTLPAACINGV
Sequence of Cyclin-dependent kinase 1/G2/mitotic-specific cyclin-B (P15206 whole entry): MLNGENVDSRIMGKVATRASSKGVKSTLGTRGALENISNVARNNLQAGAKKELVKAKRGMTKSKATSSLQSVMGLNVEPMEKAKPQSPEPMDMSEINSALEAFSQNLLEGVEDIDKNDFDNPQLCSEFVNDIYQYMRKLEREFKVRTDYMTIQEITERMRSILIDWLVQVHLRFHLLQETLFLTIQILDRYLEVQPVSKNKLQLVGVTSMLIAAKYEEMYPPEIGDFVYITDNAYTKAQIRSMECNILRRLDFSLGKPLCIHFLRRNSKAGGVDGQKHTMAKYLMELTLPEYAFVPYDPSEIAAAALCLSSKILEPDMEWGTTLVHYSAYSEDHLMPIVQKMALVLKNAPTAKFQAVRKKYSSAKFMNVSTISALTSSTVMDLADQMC

T1 sequence (Q15078 99-307): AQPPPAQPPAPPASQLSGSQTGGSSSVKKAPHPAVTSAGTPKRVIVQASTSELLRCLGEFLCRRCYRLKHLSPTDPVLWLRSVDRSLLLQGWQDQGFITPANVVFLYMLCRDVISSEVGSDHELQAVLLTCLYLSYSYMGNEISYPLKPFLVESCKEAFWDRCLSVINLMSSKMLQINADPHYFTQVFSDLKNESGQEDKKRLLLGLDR
T1 sequence (Q00535 whole entry): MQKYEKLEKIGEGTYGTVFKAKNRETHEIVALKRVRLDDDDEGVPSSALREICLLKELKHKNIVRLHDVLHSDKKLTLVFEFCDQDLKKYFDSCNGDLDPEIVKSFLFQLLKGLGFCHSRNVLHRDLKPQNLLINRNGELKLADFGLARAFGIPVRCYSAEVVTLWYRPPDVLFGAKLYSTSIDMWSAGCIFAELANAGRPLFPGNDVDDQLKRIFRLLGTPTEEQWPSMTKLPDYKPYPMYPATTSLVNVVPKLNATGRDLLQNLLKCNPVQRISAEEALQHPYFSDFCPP

Regarding `CN1C(=O)/C(=C2\Nc3ccccc3C2=O)c2ccccc21` [1-methyl-3-[(2Z)-3-oxo-2,3-dihydro-1H-indol-2-ylidene]-2,3-dihydro-1H-indol-2-one], the IC50 in assay [1], in assay [2] and in assay [3] was more than 100000 nM each time.

Regarding `CN1C(=O)C(c2[nH]c3ccccc3c2N=O)c2ccccc21` (stereo not drawn) [3-[(2Z,3E)-3-(hydroxyimino)-2,3-dihydro-1H-indol-2-ylidene]-1-methyl-2,3-dihydro-1H-indol-2-one], the IC50 in assay [1] is more than 100000 nM; in assay [2], more than 100000 nM; in assay [3], 73000 nM.

`CO/N=C1/C(=C2/C(=O)Nc3ccccc32)Nc2ccccc21` [3-[(2Z,3E)-3-(methoxyimino)-2,3-dihydro-1H-indol-2-ylidene]-2,3-dihydro-1H-indol-2-one] returned an IC50 in assay [2] of 400 nM.

As to `O=C1Nc2cccc(Cl)c2/C1=C1/Nc2ccccc2C1=O` [4-chloro-3-[(2Z)-3-oxo-2,3-dihydro-1H-indol-2-ylidene]-2,3-dihydro-1H-indol-2-one], the concentration for half-maximal inhibition (IC50) in assay [1] was more than 100000 nM; in assay [2], 10000 nM; in assay [3], 10000 nM.

Turning to `O=C1Nc2cc(Br)c([N+](=O)[O-])cc2[C+]1c1[nH]c2ccccc2c1[O-]` [6-Bromo-5-nitroindirubin], the half-inhibitory concentration (IC50) in assay [1] was 100 nM; in assay [2] it was more than 100000 nM; in assay [3], more than 100000 nM.

As to `O=C1Nc2cc(Br)ccc2/C1=C1/Nc2ccccc2C1=O` [6-bromo-3-[(2Z)-3-oxo-2,3-dihydro-1H-indol-2-ylidene]-2,3-dihydro-1H-indol-2-one], the midpoint of inhibition in assay [2], the IC50, lay at 53000 nM.

`Cc1cc2c(cc1Br)NC(=O)C2c1[nH]c2ccccc2c1N=O` (stereo not drawn) [6-bromo-3-[(2Z,3E)-3-(hydroxyimino)-2,3-dihydro-1H-indol-2-ylidene]-5-methyl-2,3-dihydro-1H-indol-2-one] yielded an IC50 in assay [2] of 130 nM.

Take `O=Nc1c(C2C(=O)Nc3cc(Br)c([N+](=O)[O-])cc32)[nH]c2ccccc12` (stereo not drawn) [6-bromo-3-[(2Z,3E)-3-(hydroxyimino)-2,3-dihydro-1H-indol-2-ylidene]-5-nitro-2,3-dihydro-1H-indol-2-one]: inhibition in assay [2] was half-maximal at 150 nM (IC50).

Turning to `O=Nc1c(C2C(=O)Nc3cc(Br)ccc32)[nH]c2cc(Br)ccc12` (stereo not drawn) [6-bromo-3-[(2Z,3E)-6-bromo-3-(hydroxyimino)-2,3-dihydro-1H-indol-2-ylidene]-2,3-dihydro-1H-indol-2-one], the IC50 turned out to be 120 nM in assay [1], 1300 nM in assay [2] and 17000 nM in assay [3] (pH 7.2).

In the case of `Cc1cc2c(cc1Br)NC(=O)/C2=C1\Nc2ccccc2C1=O` [6-bromo-5-methylindirubin], the figures for the IC50 in assay [1], in assay [2] and in assay [3] were 25 nM, 60000 nM and 30000 nM, respectively.

In the case of `O=C1Nc2cc(Cl)ccc2/C1=C1/Nc2ccccc2C1=O` [6-chloro-3-[(2Z)-3-oxo-2,3-dihydro-1H-indol-2-ylidene]-2,3-dihydro-1H-indol-2-one], the half-maximal inhibitory concentration (IC50) is 140 nM in assay [1], more than 100000 nM in assay [2] and more than 100000 nM in assay [3] (pH 7.2).

As to `O=Nc1c(C2C(=O)Nc3cc(Cl)ccc32)[nH]c2ccccc12` (stereo not drawn) [6-chloro-3-[(2Z,3E)-3-(hydroxyimino)-2,3-dihydro-1H-indol-2-ylidene]-2,3-dihydro-1H-indol-2-one], the IC50 in assay [1] stood at 20 nM; in assay [2], 100 nM; in assay [3] (pH 7.2) it was 650 nM.

In the case of `CC(=O)ON=C1C(=C2C(=O)Nc3cc(Cl)ccc32)Nc2ccccc21` [6-chloroindirubin-3-acetoxime], the half-maximal inhibitory concentration (IC50) was 17 nM in assay [1], 200 nM in assay [2] and 30000 nM in assay [3] (pH 7.2).

In the case of `O=Nc1c(C2C(=O)Nc3cc(F)ccc32)[nH]c2ccccc12` (stereo not drawn) [6-fluoro-3-[(2Z,3E)-3-(hydroxyimino)-2,3-dihydro-1H-indol-2-ylidene]-2,3-dihydro-1H-indol-2-one], the 50% inhibitory concentration (IC50) stood at 130 nM in assay [1], 150 nM in assay [2] and 320 nM in assay [3].

In assay [2], `O=C1Nc2cc(F)ccc2/C1=C1/Nc2ccccc2C1=O` [6-fluoroindirubin] yielded an IC50 of 1000 nM.

In assay [2], `O=Nc1c(C2C(=O)Nc3cc(I)ccc32)[nH]c2ccccc12` (stereo not drawn) [6-iodoindirubin-3-oxime] showed a 50% inhibitory concentration (IC50) of 300 nM.

Take `O=C1Nc2cc(I)ccc2/C1=C1/Nc2ccccc2C1=O` [6-iodoindirubin]: the IC50 was 55 nM in assay [1], 5300 nM in assay [2] and 1600 nM in assay [3] (pH 7.2).

As to `C=Cc1ccc2c(c1)NC(=O)C2c1[nH]c2ccccc2c1N=O` (stereo not drawn) [6-vinylindirubin-3-oxime], the IC50 in assay [1] is 60 nM; in assay [2], 420 nM; in assay [3], 1200 nM.

Turning to `C=Cc1ccc2c(c1)NC(=O)/C2=C1\Nc2ccccc2C1=O` [6-vinylindirubin], the values for the 50% inhibitory concentration (IC50) in assay [1], in assay [2] and in assay [3] were 240 nM, 2400 nM and 4200 nM, respectively.

Consider `O=C1Nc2cc(Cl)c(Cl)cc2/C1=C1/Nc2ccccc2C1=O` [(2 Z)-5,6-Dichloroindirubin], for which the IC50 in assay [1] is 30 nM; in assay [2] it was 60000 nM; in assay [3], 45000 nM.

As for `O=C1Nc2cc(Br)ccc2/C1=C1/Nc2cc(Br)ccc2C1=O` [(2 Z)-6,6 -Dibromoindirubin], the half-inhibitory concentration (IC50) in assay [1] is 4500 nM; in assay [2], more than 100000 nM; in assay [3] (pH 7.2), more than 100000 nM.

For `CN1C(=O)/C(=C2\Nc3ccccc3C2=O)c2ccc(Br)cc21` [(2 Z)-6-Bromo-1-methylindirubin], the IC50 in assay [1], in assay [2] and in assay [3] (pH 7.2) was more than 100000 nM each time.

On to `CN1C(=O)C(c2[nH]c3ccccc3c2N=O)c2ccc(Br)cc21` (stereo not drawn) [(2 Z,3 E)-6-Bromo-1-methylindirubin-3-oxime], for which the figures for the IC50 in assay [1], in assay [2] and in assay [3] (pH 7.2) were more than 100000 nM, more than 100000 nM and 92000 nM, respectively.

Consider `CO/N=C1/C(=C2/C(=O)Nc3cc(Br)ccc32)Nc2ccccc21` [(2 Z,3 E)-6-Bromoindirubin-3-methoxime], for which the values for the 50% inhibitory concentration (IC50) in assay [1], in assay [2] and in assay [3] (pH 7.2) were 30 nM, 2200 nM and 3700 nM, respectively.

Regarding `CC(=O)ON=C1C(=C2C(=O)Nc3cc(F)ccc32)Nc2ccccc21` [(2 Z,3 E)-6-Fluoroindirubin-3-acetoxime], 300 nM corresponded to half-maximal inhibition in assay [2] (IC50).

As to `CC(=O)ON=C1C(=C2C(=O)Nc3cc(I)ccc32)Nc2ccccc21` [(2 Z,3 E)-6-Iodoindirubin-3-acetoxime], the concentration for half-maximal inhibition (IC50) came to 13 nM in assay [1], 1300 nM in assay [2] and 2200 nM in assay [3].

Compound `CC(=O)ON=C1C(=C2C(=O)Nc3ccccc32)Nc2ccccc21` [[(3E)-2-[(3Z)-2-oxo-2,3-dihydro-1H-indol-3-ylidene]-2,3-dihydro-1H-indol-3-ylidene]amino acetate] registered a concentration for half-maximal inhibition (IC50) in assay [2] of 700 nM.

As to `C=Cc1ccc2c(c1)NC(=O)C2=C1Nc2ccccc2C1=NOC(C)=O` [[(3E)-2-[(3Z)-6-ethenyl-2-oxo-2,3-dihydro-1H-indol-3-ylidene]-2,3-dihydro-1H-indol-3-ylidene]amino acetate], the half-maximal inhibitory concentration (IC50) in assay [1] turned out to be 65 nM; in assay [2], 400 nM; in assay [3], 1600 nM.

As usually defined, the IC50 is the concentration needed to halve the response being measured.
